Data set [1] deals with T1, Lysine-specific histone demethylase 1A (Homo sapiens, UniProt O60341). The data set is described as follows: Inhibition of recombinant LSD1 (unknown origin) expressed in Escherichia coli BL21 (DE3) using H3K4me2 peptide as substrate incubated for 30 mins by fluorescence based microplate reader assay.
For data set [2], the target named is T2, Lysine-specific histone demethylase 2 (Homo sapiens) (UniProt Q8NB78).
T2 sequence (whole entry): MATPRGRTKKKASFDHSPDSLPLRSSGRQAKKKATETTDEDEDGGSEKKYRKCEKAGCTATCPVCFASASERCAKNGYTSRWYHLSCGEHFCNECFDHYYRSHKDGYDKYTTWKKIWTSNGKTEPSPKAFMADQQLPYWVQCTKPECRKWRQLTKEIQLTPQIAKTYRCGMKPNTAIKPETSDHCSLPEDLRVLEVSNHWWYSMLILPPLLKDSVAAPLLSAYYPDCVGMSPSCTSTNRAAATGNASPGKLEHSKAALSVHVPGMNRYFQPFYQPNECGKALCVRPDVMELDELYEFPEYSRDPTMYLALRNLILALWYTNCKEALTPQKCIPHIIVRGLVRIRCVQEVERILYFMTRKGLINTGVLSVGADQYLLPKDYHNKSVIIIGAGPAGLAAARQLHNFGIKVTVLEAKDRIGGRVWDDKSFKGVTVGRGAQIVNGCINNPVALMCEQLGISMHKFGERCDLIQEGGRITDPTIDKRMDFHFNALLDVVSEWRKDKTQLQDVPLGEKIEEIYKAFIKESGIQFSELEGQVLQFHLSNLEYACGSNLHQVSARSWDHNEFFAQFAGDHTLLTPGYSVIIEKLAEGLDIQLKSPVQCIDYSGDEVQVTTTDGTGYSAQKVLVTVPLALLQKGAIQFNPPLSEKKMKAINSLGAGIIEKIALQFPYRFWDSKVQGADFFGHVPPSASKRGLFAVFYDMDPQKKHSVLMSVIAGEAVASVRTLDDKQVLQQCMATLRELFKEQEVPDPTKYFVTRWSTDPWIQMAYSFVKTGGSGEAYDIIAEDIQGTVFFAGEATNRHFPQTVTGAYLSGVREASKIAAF
The experiment in a line: Inhibition of recombinant LSD2 (unknown origin) at 10 uM.

The target in the next data set is T3, MAO-A (Homo sapiens, UniProt P21397).
T3 sequence (P21397 whole entry): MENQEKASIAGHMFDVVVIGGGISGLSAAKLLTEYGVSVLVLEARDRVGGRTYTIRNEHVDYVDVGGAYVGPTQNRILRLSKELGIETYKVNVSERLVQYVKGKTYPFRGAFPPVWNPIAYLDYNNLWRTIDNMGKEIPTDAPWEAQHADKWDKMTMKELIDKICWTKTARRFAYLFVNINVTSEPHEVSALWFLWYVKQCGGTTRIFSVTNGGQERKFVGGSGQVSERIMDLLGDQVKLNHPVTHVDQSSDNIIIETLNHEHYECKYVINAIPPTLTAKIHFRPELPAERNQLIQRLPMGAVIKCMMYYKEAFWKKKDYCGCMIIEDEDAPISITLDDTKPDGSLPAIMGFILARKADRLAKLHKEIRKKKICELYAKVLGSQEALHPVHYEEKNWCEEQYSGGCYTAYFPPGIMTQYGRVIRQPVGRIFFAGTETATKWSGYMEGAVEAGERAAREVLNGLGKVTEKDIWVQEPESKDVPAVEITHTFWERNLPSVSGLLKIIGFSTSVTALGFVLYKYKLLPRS
The experiment in a line: Inhibition of recombinant human MAO-A at 10 uM.

Data set [3] has as its target T1, Lysine-specific histone demethylase 1A. The data set is described as follows: Inhibition of human LSD1 in human BGC-823 cells assessed as inhibition of H3K4me1 demethylation at 5 to 20 uM incubated for 5 days by Western blot anlaysis. As to conditions: dose 5-20 µM, time 5.0 day. The format is cell-based.
The target is the same in data set [4]. The data set is described as follows: Inhibition of human LSD1 in human LSD1 knockout BGC-823 cells assessed as effect on H3K4me3 methylation at 5 to 20 uM incubated for 5 days by Western blot anlaysis. The class given is cell-based. As to conditions: dose 5-20 µM, time 5.0 day.
Data set [5] concerns MFC. The data set is described as follows: Downregulation of PD-L1 expression in mouse MFC cells at 5 to 20 uM incubated for 5 days by Western blot anlaysis. The format is functional, cell-based. As to conditions: dose 5-20 µM, time 5.0 day. (Immunoblotting shows a protein as a band on a membrane.)
Data set [6] has as its system BGC-823. The experiment in a line: Downregulation of PD-L1 expression in human LSD1 knockout BGC-823 cells transfected with wild type LSD1 plasmid at 20 uM incubated for 5 days by Western blot anlaysis. As to conditions: time 5.0 day. The class given is functional, cell-based.
The test system of data set [7] is BGC-823. The data set is described as follows: Downregulation of PD-L1 expression in human LSD1 knockout BGC-823 cells transfected with […] K661A mutant plasmid at 20 uM incubated for 5 days by Western blot anlaysis. The class given is functional, cell-based. As to conditions: time 5.0 day.
For data set [8], the system named is BGC-823. The data set is described as follows: Downregulation of PD-L1 mRNA expression in human BGC-823 cells at 5 to 5 to 20 uM incubated for 5 days. The class given is functional, cell-based. As to conditions: dose 5-20 µM, time 5.0 day.
The target of data set [9] is Programmed cell death protein 1/Programmed cell death 1 ligand 1 (Homo sapiens) (UniProt Q15116+Q9NZQ7). The data set is described as follows: Inhibition of PD-L1/PD-1 interaction in human BGC-823 cells assessed as decrease in binding of PD-1 to cell membrane at 5 to 20 uM incubated for 5 days followed by recombinant PD-1-Fc protein addition by confocal microscopy analysis. The class given is cell-based. As to conditions: dose 5-20 µM, time 5.0 day.

Data set [10] concerns BGC-823. The experiment in a line: Anticancer activity against human BGC-823 cells assessed as increase in CD3/CD28 activated T-cell killing response by measuring IFNgamma level at 5 to 20 uM incubated for 5 days by Sandwich ELISA. The format is functional, cell-based. As to conditions: dose 5-20 µM, time 5.0 day. In general terms: ELISA stands for enzyme-linked immunosorbent assay.

The subject of data set [11] is BGC-823. The data set is described as follows: Anticancer activity against human BGC-823 cells assessed as increase in CD3/CD28 activated T-cell killing response by measuring TNFalpha level at 5 to 20 uM incubated for 5 days by Sandwich ELISA. As to conditions: dose 5-20 µM, time 5.0 day. The class given is functional, cell-based.
The subject of data set [12] is MFC. The data set is described as follows: Antitumor activity against mouse MFC cells xenografted in 615 mouse assessed as tumor growth suppression at 10 to 50 mg/kg, po for 14 days. The format is functional, organism-based. As to conditions: dose 10-50 mg/kg, time 14.0 day.
Data set [13] can be described thus: Toxicity against 615 mouse xenografted with mouse MFC cells in assessed as pathological changes in heart at 10 to 50 mg/kg, po for 14 days by Hematoxylin and Eosin staining based microscopic analysis. The class given is organism-based. As to conditions: in vivo, 336 h, dose 10-50 mg/kg, time 14 day.
Data set [14] can be described thus: Toxicity against 615 mouse xenografted with mouse MFC cells in assessed as pathological changes in liver at 10 to 50 mg/kg, po for 14 days by Hematoxylin and Eosin staining based microscopic analysis. The format is organism-based. As to conditions: in vivo, 336 h, dose 10-50 mg/kg, time 14 day.
The nature of data set [15]: Toxicity against 615 mouse xenografted with mouse MFC cells in assessed as pathological changes in kidney at 10 to 50 mg/kg, po for 14 days by Hematoxylin and Eosin staining based microscopic analysis. As to conditions: in vivo, 336 h, dose 10-50 mg/kg, time 14 day. The class given is organism-based.
Data set [16] deals with MFC. The data set is described as follows: Antitumor activity against mouse MFC cells xenografted in 615 mouse assessed as decrease in intratumoral PD-L1 expression at 10 to 50 mg/kg, po for 14 days by Western blot analysis. The format is functional, organism-based. As to conditions: dose 10-50 mg/kg, time 14.0 day.
Data set [17] concerns MFC. The experiment in a line: Antitumor activity against mouse MFC cells xenografted in 615 mouse assessed as increase in infiltration of CD4+ T cells into tumor at 10 to 50 mg/kg, po for 14 days by immunohistochemistry. As to conditions: dose 10-50 mg/kg, time 14.0 day. The class given is functional, organism-based.
Data set [18] concerns MFC. The data set is described as follows: Antitumor activity against mouse MFC cells xenografted in 615 mouse assessed as increase in IFNgamma expression level in tumor at 10 to 50 mg/kg, po for 14 days by ELISA. The format is functional, organism-based. As to conditions: dose 10-50 mg/kg, time 14.0 day.

Active and inactive are the calls of the source. The calls are words filed in the database; no cut-off is given here. A value given as a limit tells only on which side of the number the result lay.

By IC50 is commonly meant the concentration that gives 50% inhibition. The term inhibition denotes the change of the read-out against control, counted positive when it falls. For `c1ccc2c(c1)Sc1ccccc1N2CCN1CCOCC1`, in data set [1], the IC50 was determined as 247 nM. Moreover, the inhibition in data set [2] is more than 10%; in data set [9], “Dose-Dependent Effect”. The inhibition at 10 µM at MAO-A is less than 10%. Also, in data set [3], the inhibition entry is “Active”. The inhibition entry in [4] was “inactive”. Further, the Activity entry with MFC [5] was “Dose-Dependent Effect”; in the data set with BGC-823 [8], “Dose-Dependent Effect”; in the data set with MFC [12], “Dose-Dependent Effect”; in data set [13], “Non-Toxic”; in data set [14], “Non-Toxic”; in data set [15], “Non-Toxic”. Further, the Activity entry in the data set with MFC [16] is “Dose-Dependent Effect”. Further, the result in the data set with BGC-823 [6], with BGC-823 [10], in the data set with BGC-823 [11], with MFC [17] and in the data set with MFC [18] was Active. Besides, the outcome with BGC-823 [7] was inactive.

(Values after ChEMBL document CHEMBL5247647, “Phenothiazine-Based LSD1 Inhibitor Promotes T-Cell Killing Response of Gastric Cancer Cells” (J Med Chem, 2023).)
